In PubChem BioAssay (NCI) one finds TGI data, which are given here for 16 compounds.

Common to all, as to assay: NCI tumour cell line growth inhibition, 48 h
In assay [1] the test system is U251 CNS.
The subject of assay [2] is UACC-62 melanoma.
The subject of assay [3] is HT29 colon.
Assay [4] concerns LOX IMVI melanoma.
The test system of assay [5] is OVCAR-3 ovarian.
Assay [6] deals with NCI-H522 lung.
Assay [7] has as its system MDA-N.
Assay [8] concerns HCT-15 colon.
The test system of assay [9] is NCI-H23 lung.
The subject of assay [10] is PC-3 prostate.
For assay [11], the system named is SK-MEL-5 melanoma.
Assay [12] concerns SNB-75 CNS.
Assay [13] relates to SNB-19 CNS.
Assay [14] concerns HL-60(TB) leukemia.
Assay [15] concerns SF-539 CNS.
Assay [16] deals with SR leukemia.
The subject of assay [17] is K-562 leukemia.
In assay [18] the test system is UACC-257 melanoma.
Assay [19] relates to HOP-62 NSCLC.
Assay [20] has as its system HOP-92 NSCLC.

Each structure is given as a SMILES string.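 1) Cells in 96-well plates. 2) Compound, 48 h, 5 concentrations. 3) Linear interpolation between surrounding doses. 4) Unreached endpoint = highest concentration. TGI denotes the concentration required for complete inhibition of growth.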

As to `O=c1[nH][nH]c(=O)n1CCCCCCn1c(=O)[nH][nH]c1=O`, the TGI in [1], in assay [2], in [3], in assay [4], in assay [5] and in [6] was more than 100 µM each time. The TGI in assay [7], in [8], in assay [9], in assay [10], in assay [11] and in [12] was more than 100 µM each time. The TGI in assay [13], in assay [14], in assay [15], in [16], in [17] and in assay [18] was more than 100 µM in each case.

For `Nc1ccc(N=Nc2c(S(=O)(=O)O)cc3ccccc3c2S(=O)(=O)O)cc1`, the TGI in assay [1], in assay [2], in assay [3], in assay [4], in assay [5] and in [6] was more than 100 µM each time. Moreover, the TGI in [19], in assay [7], in assay [8], in assay [9], in assay [10] and in assay [20] was more than 100 µM in each case. The TGI in [11], in [12], in assay [13], in assay [16], in assay [17] and in [18] was more than 100 µM each time.

Consider `CC(NC(=O)Cc1ccccc1)NC(=O)C(C)C(=O)Nc1ccccc1` (stereo not drawn), for which the TGI in assay [1], in assay [2], in assay [3], in [6], in [7] and in assay [8] was more than 100 µM throughout. Also, the TGI in assay [9] was more than 100 µM; in assay [10], more than 100 µM; in [20] it was more than 100 µM; in assay [11], more than 100 µM; in assay [12], more than 100 µM; in assay [13], 75.8 µM. For the same compound, the TGI in assay [15], in [16], in assay [17] and in [18] was more than 100 µM throughout.

With `O=C1NC2c3c(I)sc(I)c3C(O)C2O1` (stereo not drawn), the TGI in assay [1], in assay [2], in [3], in [4], in [5] and in assay [19] was more than 100 µM throughout. Moreover, the TGI in [7], in [8], in [9], in [10], in [20] and in assay [12] was more than 100 µM in each case. The TGI in [13], in [14], in assay [15], in assay [16], in assay [17] and in [18] was more than 100 µM each time.

As for `CSC1=N/C(=C\c2ccc(C)cc2)C(=O)N1CN1CCCCC1`, the TGI in assay [1], in assay [2], in assay [3], in assay [4], in [5] and in assay [6] was more than 100 µM throughout. Further, the TGI in assay [19], in [7], in assay [8], in assay [9], in assay [10] and in [20] was more than 100 µM throughout. Moreover, the TGI in assay [11], in assay [12], in assay [13], in assay [16] and in [17] was more than 100 µM throughout.

As to `O=[N+]([O-])C(=C(Nc1cccc2cccnc12)Nc1cccc2cccnc12)C(Cl)=C(Cl)Cl`, the TGI in assay [1] was more than 100 µM; in assay [2] it was more than 100 µM; in [3], more than 100 µM; in [4], more than 100 µM; in assay [5], more than 100 µM; in assay [6], 56.3 µM. Moreover, the TGI in assay [19] was more than 100 µM; in [7], more than 69.7 µM; in assay [8], more than 100 µM; in assay [9], more than 100 µM; in [10], more than 100 µM; in assay [11], 30.5 µM. The TGI in assay [12], in assay [13], in assay [15], in assay [16] and in assay [17] was more than 100 µM each time.

On to `COc1cc(OC)cc(C(=O)CC(=O)c2cc(OC)cc(OC)c2)c1`, for which the TGI in assay [1], in [2], in [5], in assay [19], in assay [7] and in assay [8] was more than 100 µM each time. Further, the TGI in assay [9], in assay [10], in assay [20], in assay [11], in [12] and in [13] was more than 100 µM in each case. For the same compound, the TGI in assay [14], in assay [15], in [16], in assay [17] and in assay [18] was more than 100 µM in each case.

Consider `CC1(C)OC[C@@H](O)[C@H](C#N)CO1`, for which the TGI in assay [1], in assay [2], in assay [3], in [4], in [5] and in assay [6] was more than 100 µM in each case. For the same compound, the TGI in assay [19], in [7], in assay [8], in [9], in assay [10] and in [11] was more than 100 µM throughout. The TGI in [12], in assay [13], in assay [14], in assay [15], in assay [16] and in assay [17] was more than 100 µM in each case. In [18], this compound returned a TGI of more than 100 µM.

In the case of `CCCCCC#CCOC(=O)C(=[N+]=[N-])P(=O)(c1ccccc1)c1ccccc1`, the TGI in [1], in assay [2], in assay [3], in assay [4], in assay [5] and in assay [19] was more than 10 µM in each case. Besides, the TGI in assay [7], in assay [8], in [9], in [10], in assay [20] and in assay [11] was more than 10 µM throughout. The TGI in assay [12], in [13], in [14], in assay [15], in assay [16] and in assay [17] was more than 10 µM throughout. The compound also came in with a TGI in assay [18] of more than 10 µM.

On to `S=c1c2cn[nH]c2nc2scc(-c3ccc(Cl)cc3)n12`, for which the TGI is 25.8 µM in assay [1]; more than 100 µM in assay [2]; 32.6 µM in [3]; 23.3 µM in [4]; 47.8 µM in assay [5]; 46.9 µM in assay [6]. The TGI in assay [19] was 40.1 µM; in [7] it was 26.2 µM; in assay [8], 26.1 µM; in [9], 30.1 µM; in [10] it was 29.8 µM; in assay [11], more than 100 µM. The TGI is 28.2 µM in assay [12]; 86.2 µM in assay [13]; 38.4 µM in assay [15]; 28.9 µM in assay [16]; more than 100 µM in assay [17]; more than 100 µM in [18].

Regarding `COc1ccc(C2c3cn[nH]c3CC3CCCCC32)cc1` (stereo not drawn), the TGI in assay [1] worked out at 28.9 µM; in assay [2], 24.6 µM; in assay [3] it was 41.4 µM; in assay [4] it was 31.8 µM; in [5], 28.9 µM; in assay [6], 36.3 µM. The TGI in assay [19] is 36.8 µM; in assay [7], 27.9 µM; in assay [8], 31.7 µM; in assay [9], 33.6 µM; in assay [10] it was 29.8 µM; in [11], 29.1 µM. Besides, the TGI was 27.2 µM in assay [12]; 43.5 µM in [13]; 61.2 µM in assay [14]; 57.1 µM in assay [16]; 98.6 µM in assay [17]; 45.9 µM in assay [18].

Regarding `O=C(CCn1ccnc1[N+](=O)[O-])NCCCn1ccnc1[N+](=O)[O-]`, the TGI in assay [1], in [2], in assay [3], in assay [4], in assay [5] and in assay [6] was more than 100 µM throughout. Besides, the TGI in [19], in assay [7], in assay [8], in assay [9], in assay [10] and in assay [11] was more than 100 µM throughout. Moreover, the TGI in assay [12], in [14], in assay [15], in assay [16], in [17] and in assay [18] was more than 100 µM each time.

As to `Cc1ccc(C2=CC(=O)OC(C[P+](c3ccccc3)(c3ccccc3)c3ccccc3)(c3ccccc3)O2)cc1` (stereo not drawn), the TGI is 34.8 µM in assay [1]; 30.5 µM in assay [2]; 29.1 µM in [3]; 30.7 µM in assay [5]; 26 µM in assay [6]; 34.9 µM in [19]. The TGI in [7] came to 29.2 µM; in assay [8], 42.8 µM; in assay [9], 27.2 µM; in assay [10], 49 µM; in assay [11], 29.8 µM; in assay [12], 36.2 µM. For the same compound, the TGI in assay [13] is 30.9 µM; in [14], 47.3 µM; in [15] it was 33.8 µM; in assay [16], 61.2 µM; in assay [17], more than 100 µM; in [18], 30.8 µM.

Take `O=C1C=C/C(=N\N=C(c2ccccc2)c2ccccc2)O1`: the TGI in assay [2], in [3], in assay [4], in [19], in [7] and in [8] was more than 10 µM each time. The TGI in assay [9], in [10], in assay [20], in assay [11], in assay [12] and in [14] was more than 10 µM throughout. Further, the TGI in assay [16], in [17] and in assay [18] was more than 10 µM in each case.

For the compound `O=C1c2ccccc2C(=O)N1n1c(Cc2ccc([N+](=O)[O-])cc2)n[nH]c1=O`, the TGI in [1] is more than 100 µM; in assay [2], 89.1 µM; in assay [3], more than 100 µM; in assay [5], more than 100 µM; in [6] it was more than 100 µM; in [19] it was more than 100 µM. Besides, the TGI in assay [7], in [8], in assay [9], in [10], in assay [20] and in assay [11] was more than 100 µM in each case. In addition, the TGI in [12], in assay [13], in assay [15], in assay [16], in [17] and in assay [18] was more than 100 µM throughout.

For `CCN1CN(c2ccccc2)C2(CCN(CC3COc4ccccc4O3)CC2)C1=O` (stereo not drawn), the TGI in assay [1] is more than 100 µM; in assay [2], 73.4 µM; in assay [3], 46.7 µM; in assay [4], 45.2 µM; in [5], more than 100 µM; in assay [6], 40.8 µM. For the same compound, the TGI in assay [19] was more than 100 µM; in assay [7], 6.54 µM; in assay [8], 54.2 µM; in assay [9] it was more than 100 µM; in assay [10], 79.2 µM; in assay [11], 32.1 µM. Also, the TGI was 94 µM in [12]; more than 100 µM in assay [13]; 45.5 µM in assay [14]; 33.3 µM in assay [15]; more than 100 µM in [16]; more than 100 µM in assay [17]. The compound also showed a TGI in assay [18] of more than 100 µM.
